According to US9650339B2, “Inhibitors of histone demethylases” (Gilead Sciences, Inc., priority 2013, dated 2017):

Columns and labels:
KDM4C = biological target: T1, KDM4C (Homo sapiens, UniProt Q9H3R0); experiment: Histone lysine demethylase immunofluorescence assay, U2OS cells transfected with KDM4C; assay type: cell-based; conditions: U2OS cells transfected with pCMVHA KDM4C; mark detected H3K9me3; 20 hours
T1 construct: Full length; host or cells: U2OS
T1 sequence (Q9H3R0 1-1056): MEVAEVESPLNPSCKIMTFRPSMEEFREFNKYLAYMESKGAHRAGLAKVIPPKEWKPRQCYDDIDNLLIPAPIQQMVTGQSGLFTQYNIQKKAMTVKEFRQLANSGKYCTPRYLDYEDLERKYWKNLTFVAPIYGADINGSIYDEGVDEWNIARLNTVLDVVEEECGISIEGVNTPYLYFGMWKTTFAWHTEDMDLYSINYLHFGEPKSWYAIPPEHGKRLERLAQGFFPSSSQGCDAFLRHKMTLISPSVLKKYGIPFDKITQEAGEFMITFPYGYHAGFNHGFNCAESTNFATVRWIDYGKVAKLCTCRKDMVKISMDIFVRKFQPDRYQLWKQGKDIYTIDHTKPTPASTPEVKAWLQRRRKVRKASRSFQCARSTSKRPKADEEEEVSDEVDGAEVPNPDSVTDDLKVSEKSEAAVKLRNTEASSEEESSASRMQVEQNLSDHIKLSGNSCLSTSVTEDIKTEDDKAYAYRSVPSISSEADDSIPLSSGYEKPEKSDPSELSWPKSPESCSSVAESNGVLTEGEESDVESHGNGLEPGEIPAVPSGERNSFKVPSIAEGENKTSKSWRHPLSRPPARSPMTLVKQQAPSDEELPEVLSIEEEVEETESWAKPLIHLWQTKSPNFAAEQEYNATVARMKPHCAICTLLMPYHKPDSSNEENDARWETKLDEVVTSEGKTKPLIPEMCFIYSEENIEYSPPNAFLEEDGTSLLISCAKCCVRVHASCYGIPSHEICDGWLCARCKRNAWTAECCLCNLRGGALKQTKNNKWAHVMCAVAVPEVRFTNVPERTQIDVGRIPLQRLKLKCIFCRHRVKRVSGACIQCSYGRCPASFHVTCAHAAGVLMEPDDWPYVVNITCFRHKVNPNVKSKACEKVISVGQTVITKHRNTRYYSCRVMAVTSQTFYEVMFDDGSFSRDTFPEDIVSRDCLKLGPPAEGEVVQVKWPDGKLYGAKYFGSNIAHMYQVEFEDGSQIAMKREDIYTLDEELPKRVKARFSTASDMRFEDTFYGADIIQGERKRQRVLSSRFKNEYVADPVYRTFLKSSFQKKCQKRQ
Protocol: (§1) U2OS cells were seeded 24 hours before transfection. Transfection was performed with Fugene HD transfection reagent as recommended by the manufacturer. 6 hours after transfection, the cells were harvested and seeded into multi well plates into media containing compound. The media used was DMEM containing 10% FBS and pen/strep. 20 hours after incubation of cells with compounds, the cells were washed in PBS, harvested by fixation with formaldehyde 4% aqueous solution, and washed in PBS. Subsequently, the cells were permeabilized in PBS with 0.2% Triton X-100 for. Blocking was performed in PBS with 0.2% Triton X-100 and 5% FBS. The cells were incubated with primary antibodies in blocking solution over night at 4° C. The primary antibodies used in the assays were HA.11 (Covance, MMS-101P) and the antibody detecting the mark specified in the table below. After incubation with primary antibodies, the cells were washed with PBS, incubated with secondary antibodies (Alexa fluor 594 goat anti rabbit IgG, Invitrogen, A11012; Alexa flour 488 donkey anti mouse IgG, Invitrogen, A21202) and Hoechst, (Sigma, 33342) in blocking solution, and washed again with PBS. Finally, PBS was added and high throughput imaging and analysis were performed by an IN Cell Analyzer 1000 (GE Healthcare). The robot software analyzed individual cells and divided these into HA+ (transfected cells) and HA− (non-transfected cells). The IC50 values were based on an average measure of the staining of the mark specified in the table below in the transfected cells.

KDM2A = biological target: T2, KDM2A (Homo sapiens, UniProt Q9Y2K7); experiment: Histone lysine demethylase immunofluorescence assay, U2OS cells transfected with KDM2A; assay type: cell-based; conditions: U2OS cells transfected with pCMVHA KDM2A; mark detected H3K36me2; 20 hours
T2 construct: Full length; host or cells: U2OS
T2 sequence (Q9Y2K7 1-1162): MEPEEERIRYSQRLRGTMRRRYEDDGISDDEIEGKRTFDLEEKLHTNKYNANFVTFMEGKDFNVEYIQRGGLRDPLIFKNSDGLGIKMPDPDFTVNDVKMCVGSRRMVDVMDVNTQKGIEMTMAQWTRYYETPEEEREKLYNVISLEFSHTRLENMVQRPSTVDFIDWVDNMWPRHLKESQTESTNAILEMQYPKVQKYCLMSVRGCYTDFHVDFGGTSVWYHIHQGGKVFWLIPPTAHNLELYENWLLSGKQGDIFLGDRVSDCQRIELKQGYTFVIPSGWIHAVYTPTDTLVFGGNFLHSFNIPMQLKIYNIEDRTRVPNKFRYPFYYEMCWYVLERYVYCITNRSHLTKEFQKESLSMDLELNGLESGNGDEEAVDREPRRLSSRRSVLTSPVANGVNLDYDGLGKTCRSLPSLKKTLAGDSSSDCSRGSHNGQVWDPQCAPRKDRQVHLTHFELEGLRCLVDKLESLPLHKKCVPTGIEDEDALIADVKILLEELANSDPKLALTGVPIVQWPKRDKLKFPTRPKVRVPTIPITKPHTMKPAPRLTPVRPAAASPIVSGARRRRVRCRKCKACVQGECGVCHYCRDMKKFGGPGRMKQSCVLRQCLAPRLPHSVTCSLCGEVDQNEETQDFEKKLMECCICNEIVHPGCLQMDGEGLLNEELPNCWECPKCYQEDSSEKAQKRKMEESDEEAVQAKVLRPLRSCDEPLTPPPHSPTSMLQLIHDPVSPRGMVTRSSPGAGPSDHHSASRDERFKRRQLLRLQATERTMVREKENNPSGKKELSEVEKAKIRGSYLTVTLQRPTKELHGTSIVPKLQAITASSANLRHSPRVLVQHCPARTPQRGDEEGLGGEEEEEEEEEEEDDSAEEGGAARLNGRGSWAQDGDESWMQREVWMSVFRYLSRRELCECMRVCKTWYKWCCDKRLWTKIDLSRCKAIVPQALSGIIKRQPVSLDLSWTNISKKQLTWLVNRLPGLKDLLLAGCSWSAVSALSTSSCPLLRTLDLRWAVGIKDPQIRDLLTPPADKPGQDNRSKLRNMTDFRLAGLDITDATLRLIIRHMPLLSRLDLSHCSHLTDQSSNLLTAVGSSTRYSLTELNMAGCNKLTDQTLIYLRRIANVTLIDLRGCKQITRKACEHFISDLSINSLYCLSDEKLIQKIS
Protocol: as §1

KDM5B = biological target: T3, KDM5B (Homo sapiens, UniProt Q9UGL1); experiment: Histone lysine demethylase immunofluorescence assay, U2OS cells transfected with KDM5B; assay type: cell-based; conditions: U2OS cells transfected with pCMVHA KDM5B; mark detected H3K4me2; 20 hours
T3 construct: (a.a. 1-752); host or cells: U2OS
T3 sequence (Q9UGL1 1-752): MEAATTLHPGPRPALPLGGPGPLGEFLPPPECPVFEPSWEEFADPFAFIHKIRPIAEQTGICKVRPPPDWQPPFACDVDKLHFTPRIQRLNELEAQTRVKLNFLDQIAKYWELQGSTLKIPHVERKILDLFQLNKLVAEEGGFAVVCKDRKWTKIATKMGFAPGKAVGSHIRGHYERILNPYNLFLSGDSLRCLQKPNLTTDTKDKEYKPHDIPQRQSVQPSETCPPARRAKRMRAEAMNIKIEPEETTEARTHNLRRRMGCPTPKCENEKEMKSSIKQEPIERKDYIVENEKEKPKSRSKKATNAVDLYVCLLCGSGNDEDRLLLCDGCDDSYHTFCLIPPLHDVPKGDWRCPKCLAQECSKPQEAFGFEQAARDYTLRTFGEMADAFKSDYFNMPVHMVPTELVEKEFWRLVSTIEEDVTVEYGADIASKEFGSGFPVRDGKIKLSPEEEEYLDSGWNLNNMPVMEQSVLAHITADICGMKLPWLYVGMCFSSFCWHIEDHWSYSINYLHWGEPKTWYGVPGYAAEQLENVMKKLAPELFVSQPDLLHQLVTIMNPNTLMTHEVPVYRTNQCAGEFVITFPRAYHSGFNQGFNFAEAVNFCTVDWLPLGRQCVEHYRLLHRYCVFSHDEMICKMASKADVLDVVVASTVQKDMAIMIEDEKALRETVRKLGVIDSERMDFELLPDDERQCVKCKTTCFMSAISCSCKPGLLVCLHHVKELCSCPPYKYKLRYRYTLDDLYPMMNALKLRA
Protocol: as §1

[1] = tested on: OPM-2 subcutaneous mouse xenograft model of multiple myeloma; experiment: Inhibition of tumor growth in mouse xenograft model; assay type: in vivo, NOD/SCID mice (Mus Musculus); conditions: QD × 4/week × 2
Description: Briefly, NOD/SCID mice γ-irradiated with ^60Co (200 rad) (12 animals/group) were inoculated subcutaneously with 8×10^6 OPM-2 cells assisted with Matrigel. Dosing according to the table below started when tumors reached an average size of ˜100 mm^3 (day 15). Dosing continued until the average size of tumors in the vehicle group reached ˜2000 mm^3 (day 31).
Animals were 7 weeks old female NOD/SCID mice (Mus Musculus), supplied by Beijing HFK Bio-Technology Co. Ltd. (Beijing, china). Body weight was approx. 16-23 g. Before commencement of treatment, all animals were weighed and tumor volumes were measured, and mice were assigned into groups using randomized block design based upon their tumor volumes.
OPM-2 tumor cells were maintained in vitro in RPMI1640 medium supplemented with 20% fetal bovine serum at 37° C. in an atmosphere of 5% CO2 in air. The tumor cells were routinely subcultured twice weekly. The cells growing in an exponential growth phase were harvested and counted for tumor inoculation.
Tumor sizes were measured three times weekly in two dimensions using a caliper, and the volume was expressed in mm^3 using the formula: V=0.5 a×b^2 where a and b were the long and short diameters of the tumor, respectively.

Row | Compound | IC50 (KDM4C) | IC50 (KDM2A) | IC50 (KDM5B) | Tumor Volume ([1]; day 15 after inoculation (start of dosing)) | Tumor Volume ([1]; day 17 after inoculation) | Tumor Volume ([1]; day 19 after inoculation) | Tumor Volume ([1]; day 21 after inoculation) | Tumor Volume ([1]; day 24 after inoculation) | Tumor Volume ([1]; day 26 after inoculation) | Tumor Volume ([1]; day 28 after inoculation) | Tumor Volume ([1]; day 31 after inoculation)
1 | CN(CCc1ccccc1)C(=O)CNCc1cc(/C=N/CCO)ccn1 [Compound 96, 2-[{4-[([(2-hydroxyethyl)imino]-methyl]pyridin-2-yl}methyl)amino]-N-methyl-N-(2-phenylethyl)acetamide] | > 2500 nM | > 2500 nM | > 2500 nM |  |  |  |  |  |  |  | 
2 | Nc1cccc2c1CN(C1CCC(=O)NC1=O)C2=O (centres unmarked) [Lenolidomide, reference compound] |  |  |  | 101 ± 12 mm^3 | 156 ± 26 mm^3 | 178 ± 36 mm^3 | 266 ± 56 mm^3 | 395 ± 92 mm^3 | 509 ± 116 mm^3 | 767 ± 169 mm^3 | 1148 ± 175 mm^3
